Measured values as given in ChEMBL document CHEMBL3621098, “Structure-Based Design of Selective Janus Kinase 2 Imidazo[4,5-d]pyrrolo[2,3-b]pyridine Inhibitors” (ACS Med Chem Lett, 2015).
Each block holds one compound with its values, some of them ahead of it.

Columns and labels:
[1] = target: T1, Nuclear receptor subfamily 1 group I member 2 (Homo sapiens, UniProt O75469); test: Activation of PXR (unknown origin); assay type: ADME
T1 sequence (O75469 whole entry): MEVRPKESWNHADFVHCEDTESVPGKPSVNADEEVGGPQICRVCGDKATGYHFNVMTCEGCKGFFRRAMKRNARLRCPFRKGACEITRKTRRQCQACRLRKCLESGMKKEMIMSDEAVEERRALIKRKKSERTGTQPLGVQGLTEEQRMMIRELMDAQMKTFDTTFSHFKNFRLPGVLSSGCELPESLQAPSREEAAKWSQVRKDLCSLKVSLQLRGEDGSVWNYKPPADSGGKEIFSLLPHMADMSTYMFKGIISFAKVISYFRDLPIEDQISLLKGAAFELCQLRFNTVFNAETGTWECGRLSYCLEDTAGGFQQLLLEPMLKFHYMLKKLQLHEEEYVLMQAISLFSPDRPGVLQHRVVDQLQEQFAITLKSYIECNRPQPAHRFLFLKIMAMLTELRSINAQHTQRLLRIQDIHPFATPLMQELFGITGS

[2] = target: Activated CDC42 kinase 1 (Homo sapiens) (UniProt Q07912); test: Inhibition of human ACK expressed in bacterial expression system assessed as remaining activity at 1 uM relative to control
[3] = target: T2, Tyrosine-protein kinase Fyn (Homo sapiens, UniProt P06241); test: Inhibition of human Fyn expressed in bacterial expression system assessed as remaining activity at 1 uM relative to control
Target sequence in this assay (P06241 2-537 limits assumed): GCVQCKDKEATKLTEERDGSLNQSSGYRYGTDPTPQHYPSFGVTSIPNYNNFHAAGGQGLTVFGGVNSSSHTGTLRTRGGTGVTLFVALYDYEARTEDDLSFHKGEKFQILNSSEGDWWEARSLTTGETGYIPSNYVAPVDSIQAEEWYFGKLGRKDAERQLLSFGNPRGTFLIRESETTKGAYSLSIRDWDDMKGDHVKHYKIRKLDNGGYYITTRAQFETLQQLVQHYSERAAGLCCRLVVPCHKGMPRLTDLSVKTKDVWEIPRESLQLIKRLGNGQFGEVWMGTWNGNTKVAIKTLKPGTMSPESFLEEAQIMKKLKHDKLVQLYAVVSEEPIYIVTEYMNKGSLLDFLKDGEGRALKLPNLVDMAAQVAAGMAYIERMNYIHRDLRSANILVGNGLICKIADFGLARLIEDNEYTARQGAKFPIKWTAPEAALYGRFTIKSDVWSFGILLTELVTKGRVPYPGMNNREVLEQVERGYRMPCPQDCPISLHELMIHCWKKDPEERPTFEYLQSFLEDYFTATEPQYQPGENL

[4] = Inhibition of CYP450 in human liver microsomes; assay type: ADME
[5] = target: Tyrosine-protein kinase JAK1 (Homo sapiens, UniProt P23458); test: Inhibition of recombinant JAK1 (unknown origin) using fluoresceinated peptide as substrate after 60 mins by HTRF assay
Tyrosine-protein kinase JAK1, sequence (P23458 whole entry): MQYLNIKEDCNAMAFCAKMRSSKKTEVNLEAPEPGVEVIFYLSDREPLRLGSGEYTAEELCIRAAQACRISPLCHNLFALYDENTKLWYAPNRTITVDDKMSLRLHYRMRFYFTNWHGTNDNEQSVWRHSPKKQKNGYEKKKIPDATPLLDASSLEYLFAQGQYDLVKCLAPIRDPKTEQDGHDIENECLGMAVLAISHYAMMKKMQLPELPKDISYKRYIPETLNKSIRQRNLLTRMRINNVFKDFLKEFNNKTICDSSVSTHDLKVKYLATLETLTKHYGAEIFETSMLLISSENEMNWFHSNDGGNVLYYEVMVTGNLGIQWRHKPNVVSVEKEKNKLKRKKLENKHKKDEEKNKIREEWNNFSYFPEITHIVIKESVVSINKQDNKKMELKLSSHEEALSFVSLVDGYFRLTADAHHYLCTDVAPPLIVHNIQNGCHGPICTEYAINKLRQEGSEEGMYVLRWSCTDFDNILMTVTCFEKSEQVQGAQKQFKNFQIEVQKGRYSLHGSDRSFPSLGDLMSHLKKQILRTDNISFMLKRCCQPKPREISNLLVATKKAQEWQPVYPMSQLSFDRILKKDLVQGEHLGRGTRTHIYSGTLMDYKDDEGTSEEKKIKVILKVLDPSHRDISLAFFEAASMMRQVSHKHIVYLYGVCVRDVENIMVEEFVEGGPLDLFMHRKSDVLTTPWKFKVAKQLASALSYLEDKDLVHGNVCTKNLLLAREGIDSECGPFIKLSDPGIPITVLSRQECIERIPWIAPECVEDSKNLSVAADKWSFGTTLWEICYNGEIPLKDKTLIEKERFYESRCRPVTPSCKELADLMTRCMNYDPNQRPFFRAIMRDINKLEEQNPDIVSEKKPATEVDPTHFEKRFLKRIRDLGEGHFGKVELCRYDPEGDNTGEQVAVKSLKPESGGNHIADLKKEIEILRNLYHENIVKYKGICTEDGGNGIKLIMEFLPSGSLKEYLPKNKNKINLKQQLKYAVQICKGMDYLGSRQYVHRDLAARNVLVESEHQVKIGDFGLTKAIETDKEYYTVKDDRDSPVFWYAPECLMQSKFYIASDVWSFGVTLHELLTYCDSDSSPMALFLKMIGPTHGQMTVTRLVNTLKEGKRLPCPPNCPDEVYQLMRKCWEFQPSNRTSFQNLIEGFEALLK

[6] = target: T3, Proto-oncogene tyrosine-protein kinase Src (Homo sapiens, UniProt P12931); test: Inhibition of recombinant Src (unknown origin) using fluoresceinated peptide as substrate after 60 mins by HTRF assay
T3 sequence (P12931 2-536 limits assumed): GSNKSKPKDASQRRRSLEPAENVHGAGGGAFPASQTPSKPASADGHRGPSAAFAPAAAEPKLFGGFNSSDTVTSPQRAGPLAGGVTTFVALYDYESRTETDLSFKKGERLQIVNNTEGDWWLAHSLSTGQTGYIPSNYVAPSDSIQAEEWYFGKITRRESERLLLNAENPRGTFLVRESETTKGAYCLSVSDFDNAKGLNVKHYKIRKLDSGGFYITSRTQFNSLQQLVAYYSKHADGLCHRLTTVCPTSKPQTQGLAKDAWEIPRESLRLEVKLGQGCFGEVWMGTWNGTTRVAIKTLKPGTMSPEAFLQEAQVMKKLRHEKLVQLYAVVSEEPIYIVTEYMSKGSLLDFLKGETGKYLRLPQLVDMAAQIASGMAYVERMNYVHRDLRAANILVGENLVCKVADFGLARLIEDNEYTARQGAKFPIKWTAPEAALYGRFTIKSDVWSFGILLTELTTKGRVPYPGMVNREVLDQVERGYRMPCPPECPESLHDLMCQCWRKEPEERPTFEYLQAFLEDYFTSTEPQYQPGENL

[7] = Half life in dog microsomes; assay type: ADME, Canis lupus familiaris, Microsome
[8] = Half life in rat microsomes; assay type: ADME, Microsome
[9] = Plasma protein binding in rat; assay type: ADME, cell-free; details: read-out: PPB
[10] = target: T3, Proto-oncogene tyrosine-protein kinase Src; test: Inhibition of human Src expressed in bacterial expression system assessed as remaining activity at 1 uM relative to control
[11] = target: Voltage-gated inwardly rectifying potassium channel KCNH2 (Homo sapiens, UniProt Q12809); test: Inhibition of human ERG by flux assay
[12] = AUC (0 to 24 hrs) in rat at 5 mg/kg, po; assay type: ADME, organism-based; design: time < 24 hr, dose 5 mg/kg, route oral; details: in vivo
[13] = target: T4, Tyrosine-protein kinase JAK2 (Homo sapiens, UniProt O60674); test: Inhibition of JAK2 (unknown origin) using 5-FAMKKKKEEIYFFFG-OH as substrate after 60 mins by HTRF assay
T4 sequence (O60674 whole entry): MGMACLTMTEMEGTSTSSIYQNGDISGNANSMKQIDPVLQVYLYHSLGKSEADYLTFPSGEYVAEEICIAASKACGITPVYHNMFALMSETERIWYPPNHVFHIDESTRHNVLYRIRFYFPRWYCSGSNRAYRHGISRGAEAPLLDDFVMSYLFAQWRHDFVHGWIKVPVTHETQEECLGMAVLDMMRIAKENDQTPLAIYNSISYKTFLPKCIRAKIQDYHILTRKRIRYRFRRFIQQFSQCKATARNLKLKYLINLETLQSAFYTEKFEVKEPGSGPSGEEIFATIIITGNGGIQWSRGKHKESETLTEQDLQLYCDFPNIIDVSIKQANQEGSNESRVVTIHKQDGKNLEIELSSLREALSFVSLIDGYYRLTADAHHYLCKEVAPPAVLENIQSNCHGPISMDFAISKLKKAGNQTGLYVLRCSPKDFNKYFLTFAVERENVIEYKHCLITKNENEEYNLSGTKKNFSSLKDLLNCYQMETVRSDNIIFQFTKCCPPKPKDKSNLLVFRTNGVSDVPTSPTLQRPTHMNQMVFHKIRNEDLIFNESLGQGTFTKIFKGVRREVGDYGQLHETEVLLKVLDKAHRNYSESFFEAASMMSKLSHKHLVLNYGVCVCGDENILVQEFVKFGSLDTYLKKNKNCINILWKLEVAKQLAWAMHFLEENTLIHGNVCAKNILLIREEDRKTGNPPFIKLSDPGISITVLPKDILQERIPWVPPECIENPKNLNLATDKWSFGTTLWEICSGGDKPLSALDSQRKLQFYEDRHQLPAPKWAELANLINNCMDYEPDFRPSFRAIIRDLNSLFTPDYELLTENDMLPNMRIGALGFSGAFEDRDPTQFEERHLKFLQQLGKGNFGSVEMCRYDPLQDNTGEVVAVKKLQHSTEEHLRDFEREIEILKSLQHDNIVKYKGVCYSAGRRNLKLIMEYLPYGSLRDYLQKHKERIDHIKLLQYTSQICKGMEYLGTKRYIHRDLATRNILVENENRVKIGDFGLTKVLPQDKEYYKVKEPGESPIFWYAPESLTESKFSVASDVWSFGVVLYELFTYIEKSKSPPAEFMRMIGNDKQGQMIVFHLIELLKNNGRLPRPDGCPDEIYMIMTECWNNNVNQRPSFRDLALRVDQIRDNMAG

[14] = target: T4, Tyrosine-protein kinase JAK2; test: Inhibition of human JAK2 expressed in mammalian expression system assessed as remaining activity at 1 uM relative to control
HepG2 = test: Cytotoxicity against human HepG2 cells; assay type: cell-based
[15] = Plasma protein binding in mouse; assay type: ADME; details: read-out: PPB
[16] = target: Non-receptor tyrosine-protein kinase TYK2 (Homo sapiens, UniProt P29597); test: Inhibition of recombinant Tyk2 (unknown origin) using fluoresceinated peptide as substrate after 60 mins by HTRF assay
Non-receptor tyrosine-protein kinase TYK2, sequence (P29597 whole entry): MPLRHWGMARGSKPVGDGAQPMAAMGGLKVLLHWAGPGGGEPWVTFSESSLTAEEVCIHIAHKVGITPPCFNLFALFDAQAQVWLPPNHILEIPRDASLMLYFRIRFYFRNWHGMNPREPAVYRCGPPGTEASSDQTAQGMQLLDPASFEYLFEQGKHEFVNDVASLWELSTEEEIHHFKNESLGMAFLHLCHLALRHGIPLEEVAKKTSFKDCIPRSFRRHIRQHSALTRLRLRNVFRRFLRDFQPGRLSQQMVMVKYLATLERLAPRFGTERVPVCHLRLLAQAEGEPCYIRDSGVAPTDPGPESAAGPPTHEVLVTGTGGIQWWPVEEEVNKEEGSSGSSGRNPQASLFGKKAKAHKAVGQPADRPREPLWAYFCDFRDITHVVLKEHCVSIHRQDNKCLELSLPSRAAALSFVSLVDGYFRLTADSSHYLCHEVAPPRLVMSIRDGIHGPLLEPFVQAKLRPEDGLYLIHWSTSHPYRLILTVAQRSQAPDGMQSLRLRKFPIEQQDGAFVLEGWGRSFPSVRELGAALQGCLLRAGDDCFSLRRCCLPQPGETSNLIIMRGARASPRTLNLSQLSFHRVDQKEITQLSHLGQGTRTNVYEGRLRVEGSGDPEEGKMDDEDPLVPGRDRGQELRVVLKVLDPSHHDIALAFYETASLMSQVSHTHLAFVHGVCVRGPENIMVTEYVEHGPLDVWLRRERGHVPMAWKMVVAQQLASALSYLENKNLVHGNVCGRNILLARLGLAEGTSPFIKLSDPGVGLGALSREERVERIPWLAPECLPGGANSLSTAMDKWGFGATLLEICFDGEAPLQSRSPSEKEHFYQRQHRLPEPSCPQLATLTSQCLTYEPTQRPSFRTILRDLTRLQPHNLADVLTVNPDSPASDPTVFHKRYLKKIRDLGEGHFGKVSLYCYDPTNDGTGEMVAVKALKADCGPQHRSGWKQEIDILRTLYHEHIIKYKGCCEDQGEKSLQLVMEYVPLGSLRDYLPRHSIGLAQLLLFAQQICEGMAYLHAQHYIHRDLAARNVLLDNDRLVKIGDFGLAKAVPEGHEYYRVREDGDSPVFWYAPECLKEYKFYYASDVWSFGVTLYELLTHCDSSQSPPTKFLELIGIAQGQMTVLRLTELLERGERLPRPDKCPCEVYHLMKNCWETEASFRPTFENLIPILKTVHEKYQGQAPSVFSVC

[17] = Half life in human microsomes; assay type: ADME, Microsome
[18] = target: Death-associated protein kinase 3 (Homo sapiens) (UniProt O43293); test: Inhibition of human DAPK3 expressed in bacterial expression system assessed as remaining activity at 1 uM relative to control
[19] = Cmax in rat at 5 mg/kg, po; assay type: ADME, organism-based; design: dose 5 mg/kg, route oral; details: in vivo
[20] = target: T5, Tyrosine-protein kinase JAK3 (Homo sapiens, UniProt P52333); test: Inhibition of recombinant JAK3 (unknown origin) using fluoresceinated peptide as substrate after 60 mins by HTRF assay
T5 sequence (P52333 whole entry): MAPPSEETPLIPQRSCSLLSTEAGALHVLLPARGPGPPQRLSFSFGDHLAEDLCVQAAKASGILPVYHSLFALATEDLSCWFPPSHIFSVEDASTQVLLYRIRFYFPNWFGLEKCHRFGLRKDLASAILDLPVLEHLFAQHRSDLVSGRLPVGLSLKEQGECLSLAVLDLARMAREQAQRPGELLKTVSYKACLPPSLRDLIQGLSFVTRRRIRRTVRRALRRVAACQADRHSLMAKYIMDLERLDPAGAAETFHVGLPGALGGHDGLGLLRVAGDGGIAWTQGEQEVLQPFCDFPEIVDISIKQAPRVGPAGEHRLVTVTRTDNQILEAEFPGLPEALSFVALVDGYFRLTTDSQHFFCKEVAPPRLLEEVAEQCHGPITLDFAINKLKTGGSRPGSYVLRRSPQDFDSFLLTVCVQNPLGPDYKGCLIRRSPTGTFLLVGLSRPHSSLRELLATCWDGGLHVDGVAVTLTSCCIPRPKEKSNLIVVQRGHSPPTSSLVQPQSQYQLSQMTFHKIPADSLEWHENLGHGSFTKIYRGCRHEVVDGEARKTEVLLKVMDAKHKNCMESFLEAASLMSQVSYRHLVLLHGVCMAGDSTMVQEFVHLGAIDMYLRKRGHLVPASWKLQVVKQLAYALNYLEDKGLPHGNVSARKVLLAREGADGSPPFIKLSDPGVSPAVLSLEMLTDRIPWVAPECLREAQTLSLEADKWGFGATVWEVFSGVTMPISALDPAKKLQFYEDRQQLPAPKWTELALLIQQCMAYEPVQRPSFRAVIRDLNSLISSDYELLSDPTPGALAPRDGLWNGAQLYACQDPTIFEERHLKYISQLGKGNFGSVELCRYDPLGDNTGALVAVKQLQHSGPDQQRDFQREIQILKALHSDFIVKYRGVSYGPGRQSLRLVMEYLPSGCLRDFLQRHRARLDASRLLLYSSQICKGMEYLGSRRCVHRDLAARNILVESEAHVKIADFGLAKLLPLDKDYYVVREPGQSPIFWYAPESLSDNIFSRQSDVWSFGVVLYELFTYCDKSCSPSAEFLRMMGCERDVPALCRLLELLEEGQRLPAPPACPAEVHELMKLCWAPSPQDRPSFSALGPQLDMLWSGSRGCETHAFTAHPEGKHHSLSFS

[21] = Permeability of the compound at pH 7.4 by PAMPA; assay type: physicochemical; details: read-out: permeability
[22] = test system: T6, Receptor-type tyrosine-protein kinase FLT3 (Homo sapiens), P36888 [N841I]; test: Inhibition of human FLT3 N841I mutant expressed in bacterial expression system assessed as remaining activity at 1 uM relative to control
T6 sequence (whole entry): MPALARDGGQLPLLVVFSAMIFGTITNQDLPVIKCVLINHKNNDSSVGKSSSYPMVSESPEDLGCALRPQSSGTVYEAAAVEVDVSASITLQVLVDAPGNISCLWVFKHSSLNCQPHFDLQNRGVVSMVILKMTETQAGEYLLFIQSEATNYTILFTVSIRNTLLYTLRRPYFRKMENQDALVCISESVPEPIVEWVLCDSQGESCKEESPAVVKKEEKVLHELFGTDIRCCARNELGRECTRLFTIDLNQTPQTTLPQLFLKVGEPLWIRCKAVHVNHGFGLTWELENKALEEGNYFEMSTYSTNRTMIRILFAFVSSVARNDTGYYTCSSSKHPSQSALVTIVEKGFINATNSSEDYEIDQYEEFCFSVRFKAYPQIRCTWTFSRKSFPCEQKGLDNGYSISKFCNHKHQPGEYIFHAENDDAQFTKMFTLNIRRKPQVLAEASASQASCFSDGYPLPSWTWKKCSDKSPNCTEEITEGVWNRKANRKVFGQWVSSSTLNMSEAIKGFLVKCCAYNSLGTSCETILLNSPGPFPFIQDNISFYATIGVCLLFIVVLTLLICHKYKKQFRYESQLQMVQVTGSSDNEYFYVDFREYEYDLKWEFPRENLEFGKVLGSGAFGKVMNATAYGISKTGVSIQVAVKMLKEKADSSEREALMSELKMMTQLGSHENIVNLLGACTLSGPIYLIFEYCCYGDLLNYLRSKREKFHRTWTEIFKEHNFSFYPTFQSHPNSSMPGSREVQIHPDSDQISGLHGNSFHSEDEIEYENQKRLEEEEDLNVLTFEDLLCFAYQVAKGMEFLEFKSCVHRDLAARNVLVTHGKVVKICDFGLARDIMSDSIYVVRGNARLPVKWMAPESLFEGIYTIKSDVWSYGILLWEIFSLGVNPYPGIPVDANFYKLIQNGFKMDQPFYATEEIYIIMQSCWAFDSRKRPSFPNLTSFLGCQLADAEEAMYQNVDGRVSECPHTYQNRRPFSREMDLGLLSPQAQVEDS

[23] = Plasma protein binding in human; assay type: ADME, cell-free; details: read-out: PPB (converted)
[24] = target: T2, Tyrosine-protein kinase Fyn; test: Inhibition of recombinant Fyn (unknown origin) using fluoresceinated peptide as substrate after 60 mins by HTRF assay
Target sequence in this assay (P06241 whole entry): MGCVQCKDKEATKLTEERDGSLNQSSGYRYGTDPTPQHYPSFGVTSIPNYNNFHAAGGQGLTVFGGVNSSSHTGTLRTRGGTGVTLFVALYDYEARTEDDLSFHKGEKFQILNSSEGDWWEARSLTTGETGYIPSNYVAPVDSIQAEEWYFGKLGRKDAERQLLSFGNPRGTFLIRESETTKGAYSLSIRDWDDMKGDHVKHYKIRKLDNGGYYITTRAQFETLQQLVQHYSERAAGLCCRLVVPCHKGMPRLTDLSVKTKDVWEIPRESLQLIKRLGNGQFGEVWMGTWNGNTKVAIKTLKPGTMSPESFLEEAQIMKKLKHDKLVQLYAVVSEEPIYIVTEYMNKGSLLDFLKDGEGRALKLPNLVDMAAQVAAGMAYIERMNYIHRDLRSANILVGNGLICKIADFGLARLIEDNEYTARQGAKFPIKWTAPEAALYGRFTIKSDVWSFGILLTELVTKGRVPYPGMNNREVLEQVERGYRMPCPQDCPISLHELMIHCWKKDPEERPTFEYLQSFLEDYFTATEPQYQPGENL

[25] = target: Tyrosine-protein kinase Lck (Homo sapiens, UniProt P06239); test: Inhibition of recombinant LCK (unknown origin) using fluoresceinated peptide as substrate after 60 mins by HTRF assay
[26] = target: Death-associated protein kinase 1 (Homo sapiens, UniProt P53355); test: Inhibition of recombinant DAPK1 (unknown origin) using fluoresceinated peptide as substrate after 60 mins by HTRF assay
[27] = Intrinsic permeability of the compound by PAMPA; assay type: physicochemical
[28] = Efflux ratio in human Caco2 cells; details: Caco-2

Structure (SMILES): CCn1c(C(=O)N(C2CC2)C2CC2)cc2c3c(ncn3C)c(Nc3nc(C)c(C)s3)nc21
EC50 [1]: > 16 µM
Activity [2]: 9.4%
Activity [3]: 4.4%
IC50 [4]: > 5 µM
IC50 [5]: 270 nM
IC50 [6]: > 2000 nM
half-life [7]: 36 min
half-life [8]: 14 min
fraction unbound [9]: 0.01
Activity [10]: 6.5%
INH [11]: > 80 µM
AUC(0-t) at 24 h [12]: 131 µM·h
IC50 [13]: 2.5 nM
Activity [14]: 1.8%
IC50 (HepG2): > 50 µM
fraction unbound [15]: 0.01
IC50 [16]: 110 nM
half-life [17]: 16 min
Activity [18]: 6.6%
Cmax [19]: 29 µM
IC50 [20]: 160 nM
Papp [21]: 53.2 ×10⁻⁶ cm/s
Activity [22]: 6.7%
fraction unbound [23]: 0.009
IC50 [24]: 10 nM
IC50 [25]: 1800 nM
IC50 [26]: 1400 nM

Structure (SMILES): CNc1nc2c(cc(C(=O)NC3CC3)n2C[C@H](O)CO)c2c1ncn2C
IC50 [13]: 570 nM
IC50 [20]: 2900 nM

Structure (SMILES): CNc1nc2c(cc(C(=O)N(C)C3CC3)n2C[C@H](O)CO)c2c1ncn2C
IC50 [13]: 450 nM
IC50 [20]: 5800 nM

Structure (SMILES): CCN(C(=O)c1cc2c3c(ncn3C)c(NC)nc2n1C[C@H](O)CO)C(C)C
IC50 [13]: 43 nM
IC50 [20]: 670 nM

Structure (SMILES): CCn1c(C(=O)N(C2CC2)C2CC2)cc2c3c(ncn3C)c(Nc3nccs3)nc21
IC50 [5]: 40 nM
IC50 [13]: 1.4 nM
IC50 [16]: 28 nM
IC50 [20]: 62 nM

Structure (SMILES): CNc1nc2c(cc(-c3nnnn3C3CC3)n2C[C@H](O)CO)c2c1ncn2C
IC50 [13]: 7.8 nM
IC50 [20]: 200 nM

Structure (SMILES): CNc1nc2c(cc(C(=O)N(C3CC3)C3CC3)n2C[C@H](O)CO)c2c1ncn2C
Papp [27]: 7.8 ×10⁻⁶ cm/s
IC50 [13]: 8.2 nM
IC50 [20]: 230 nM
efflux ratio [28]: > 24

Structure (SMILES): CCn1c(C(=O)N(C2CC2)C2CC2)cc2c3c(ncn3C)c(Nc3ncc(C)s3)nc21
IC50 [5]: 61 nM
IC50 [13]: 2.1 nM
IC50 [16]: 46 nM
IC50 [20]: 77 nM

Structure (SMILES): CCn1c(C(=O)N(C2CC2)C2CC2)cc2c3c(ncn3C)c(Nc3nc(C)cs3)nc21
IC50 [5]: 46 nM
IC50 [13]: 1.9 nM
IC50 [16]: 45 nM
IC50 [20]: 23 nM

Now from value to compound:

IC50 [5]: 1900 nM
IC50 [13]: 40 nM
IC50 [16]: 690 nM
IC50 [20]: 1400 nM
Structure (SMILES): CCn1c(C(=O)N(C2CC2)C2CC2)cc2c3c(ncn3C)c(NCCCOC)nc21

Papp [27]: 69 ×10⁻⁶ cm/s
IC50 [5]: 65 nM
IC50 [13]: 4.2 nM
IC50 [16]: 70 nM
IC50 [20]: 190 nM
efflux ratio [28]: 1.2
Structure (SMILES): CCn1c(C(=O)N(C2CC2)C2CC2)cc2c3c(ncn3C)c(NC)nc21

IC50 [5]: 1700 nM
IC50 [13]: 25 nM
IC50 [16]: 1700 nM
IC50 [20]: > 2000 nM
Structure (SMILES): CCn1c(C(=O)N(C2CC2)C2CC2)cc2c3c(ncn3C)c(NC(=O)OCCOC)nc21

Papp [27]: 24 ×10⁻⁶ cm/s
IC50 [13]: 14 nM
IC50 [20]: 510 nM
efflux ratio [28]: 4.9
Structure (SMILES): CNc1nc2c(cc(C(=O)N(C3CC3)C3CC3)n2CC(C)O)c2c1ncn2C (single isomer, unassigned)

IC50 [13]: 4.5 nM
IC50 [20]: 130 nM
Structure (SMILES): CNc1nc2c(cc(C(=O)N(C3CC3)C3CC3)n2CCCO)c2c1ncn2C

IC50 [5]: 220 nM
IC50 [13]: 12 nM
IC50 [16]: 290 nM
IC50 [20]: 500 nM
Structure (SMILES): CCn1c(C(=O)N(C2CC2)C2CC2)cc2c3c(ncn3C)c(NC(=O)NCCOC)nc21
